Laboratory results published in patent US8778886B2, “Methods of making and using a cell penetrating peptide for enhanced delivery of nucleic acids, proteins, drugs, and adenovirus to tissues and cells, and compositions and kits” (Tufts University, priority 2007, dated 2014).

Key:
HER cells [1] = experiment: C-POD delivery of siRNA, silencing of GFP expression; type: cell-based, human; details: pEGFP delivered by C-POD, no siRNA
Description: pCAGRFP was compacted with C-POD at a ratio of 400 peptide/plasmid molecules. Briefly, 2 μg of DNA and the appropriate concentration of peptide were each suspended in 15 μL of either 100 μM sodium phosphate or 5% dextrose buffer. The peptide and DNA solutions were mixed and incubated for 30 minutes at room temperature prior to addition to HER cells. After 48 hours, cells were resuspended in PBS for FACS analysis. For electron microscopy, peptide/DNA complexes were prepared as above. Particles were bound to glow-discharged copper grids, stained with urinyl acetate, and visualized on a CMIO Transmission Electron Microscope (Philips) using Digital Micrograph software (Gatan, Inc). C-POD was used to compact both pd2-EGFP-NI and GFP Duplex I at concentrations of 450 particles/DNA molecule and 25 particles/duplex molecule, respectively, in 100 mM sodium phosphate buffer using the same procedures described above. Compacted pd2-EGFP-NI DNA, 2 μg, and 70 pmoles of GFP Duplex I diluted in DMEM+2% FBS were added simultaneously to HER cells for 4 hours. Growing medium was then added to cells and the incubation continued for 44 additional hours. […] The amount of fluorescence resulting from the Qdot-peptide complex was determined using a fluorometer and an equivalent amount of unbound Strep-Qdot was added separately as control. […] Uptake of Qdots was determined by fluorescent microscopy as described above. […]

E. coli = experiment: Microbicidal activity, colony count after plating; type: cell-based; details: 2 hours at 37° C., plating on LB agar
Description: Lissamine conjugated POD (L-POD) and either heparan sulfate or chondroitan sulfate were incubated together at each of molar ratios of 1:3.33, 1:6.67, and 1:8 in water for 30 minutes at room temperature. The complex was diluted in DMEM+2% FBS and added to 0.2×]06 HER cells for 5 minutes at 37° C. Following incubation, cells were trypsinized and suspended in PBS for FACS analysis as described above. To measure microbicidal activity of C-POD, XL-1 Blue cells (Stratagene, La Jolla, Calif.) were grown to mid logarithmic phase (OD600=0.600) and washed twice in a solution of 10 mM Tris, pH 7.4 and 5 mM Glucose. The cells were resuspended in 10 mL of the same solution and […] of the suspension was incubated with C-POD in a final volume of 50 μL. The peptide/bacteria cell solution was rocked for 2 hours at 37° C. The peptide-treated bacteria was diluted 1:4500 with LB broth, plated on agar, and grown overnight at 37° C. The following day, the bacterial colonies on each plate were counted to quantify peptide-related reduction in growth.
Since endophthalmitis, an infection within the eye, is regularly a complicating factor in drug delivery to ocular tissues [Ho J et al. 2007 Int Opthalmol Clin 47: 199-208], C-POD was examined for potential microbicidal activities. E. coli cells grown to mid-log phase were incubated with either H20 only or C-POD suspended in H20 at concentrations ranging from 0.03 μM to 60 μM, and cell number was determined by plating samples on LB agar. […] Greater concentrations of C-POD completely eliminated bacterial growth.

[2] = test system: human lung carcinoma epithelial cells (A549); experiment: POD-GFP protein transduction in vitro, GFP-positive cells by FACS; type: cell-based; details: A549, 10 μg protein, 2 hours
Description: To evaluate cellular penetration of POD fusion proteins, HER cells were seeded on Lab Tek-II chamber slides and incubated with 10 μg of POD-GFP or GFP for two hours. Following fixation, cells were visualized by light and fluorescence microscopy using an Olympus BX51 microscope with differential interference contrast (DIC) and the appropriate fluorescence filters. Images were captured using a Retiga 2000R FAST camera and QCapture Pro 5.0 (QImaging, British Columbia, Canada). To quantitate protein uptake, 0.2×10^6 of either HER or A549 cells were incubated with 10 μg POD-GFP or GFP for 2 hours. Cells were washed with PBS, pelleted and resuspended in PBS for FACS analysis. Cell membrane integrity was evaluated by measuring the percentage of Propidium Iodide (1 μM) positive cells in the presence of fusion protein. FACS analysis of protein uptake and toxicity was performed using a FACSCAlibur (Becton Dickinson, Franklin. Lakes, N.J.) and results analyzed using CellQuest Pro (Becton Dickinson). 10,000 events were counted for each analysis, which was performed in triplicate and repeated at least once. […]

HER cells [3] = experiment: POD-GFP protein transduction in vitro, GFP-positive cells by FACS and localization; type: cell-based, human; details: for GFP-positive cells: HER, 10 μg protein, 2 hours
Description: (§1) To evaluate cellular penetration of POD fusion proteins, HER cells were seeded on Lab Tek-II chamber slides and incubated with 10 μg of POD-GFP or GFP for two hours. Following fixation, cells were visualized by light and fluorescence microscopy using an Olympus BX51 microscope with differential interference contrast (DIC) and the appropriate fluorescence filters. Images were captured using a Retiga 2000R FAST camera and QCapture Pro 5.0 (QImaging, British Columbia, Canada). To quantitate protein uptake, 0.2×10^6 of either HER or A549 cells were incubated with 10 μg POD-GFP or GFP for 2 hours. Cells were washed with PBS, pelleted and resuspended in PBS for FACS analysis. Cell membrane integrity was evaluated by measuring the percentage of Propidium Iodide (1 μM) positive cells in the presence of fusion protein. FACS analysis of protein uptake and toxicity was performed using a FACSCAlibur (Becton Dickinson, Franklin. Lakes, N.J.) and results analyzed using CellQuest Pro (Becton Dickinson). 10,000 events were counted for each analysis, which was performed in triplicate and repeated at least once.
HER and A549 cells were treated as above for subsequent addition of LysoTracker, ER Tracker (Molecular Probes, Carlsbad, Calif.), or DAPI, and were incubated for one hour. These reagents were removed and cells were fixed with formalin for imaging.
To determine the transduction capabilities of POD-GFP in vitro, each of approximately 0.2×10^6 human lung carcinoma epithelial cells (A549) or HER cells were incubated with 10 μg of each of purified recombinant POD-GFP or control GFP protein for 2 hours and the number of GFP-positive cells were counted by FACS. […] Similarly, 34.2±3.4% and 1.8±0.4%, respectively, of HER cells were GFP-positive when incubated with POD-GFP or GFP, respectively (FIG. 9 panel A).
In contrast to endogenous gene expression, POD-GFP in the Example herein appeared in the cytoplasm of HER cells in a punctate pattern (FIG. 9 panel B), similar to observations in examples above with L-POD peptide and similar to that of an endocytic mechanism of uptake.

HER cells [4] = experiment: Toxicity during protein transduction, propidium iodide uptake; type: cell-based, human; details: HER cells incubated with protein
Description: as §1
Extent of toxicity to cells during protein transduction was measured by uptake of propidium iodide (PI).

[5] = test system: human embryonic retinoblast (HER) cells; experiment: Localization of de novo synthesized POD-GFP after plasmid transfection; type: cell-based; details: transfection with pPODGFPHis or pGFPHis
Description: Human embryonic retinoblast (HER) cells were cultured using previously described methods [Fallaux F J et al. 1996 Hum. Gene Ther. 7: 215-222]. Carcinoma human alveolar basal epithelial cells (A549, American Type Culture Collection, Manassas, Va.) were grown to 70-80% confluence in DMEM media supplemented with 10% fetal bovine serum (FBS). All cell culture procedures were performed in DMEM supplemented with 2% FBS. Transfection of plasmids was carried out using 2:1 μL Lipofectamine: μg plasmid in Opti-MEM media. Forty-eight hours post-transfection, the cells were fixed and stained with DAPI, 4′,6-diamidino-2-phenylindole.
Transfection of human embryonic retinoblast (HER) cells [Fallaux F J et al. 1996 Hum. […] Furthermore, POD-GFP appeared to concentrate in sub nuclear compartments (FIG. 7 panel B, arrowheads).

retina = experiment: Subretinal / intravitreal injection of POD-GFP protein in vivo; set-up: species or system C57BL/6J mice
Description: (§2) Subretinal and intravitreal injections of the fusion proteins were performed using techniques described in Cashman et al. [2006 Invest Opthalmol Vis Sci 47:3496-3504]. Briefly, 8.5 μg of POD-GFP or 6.6 μg of GFP protein was injected into the subretinal or intravitreal space respectively, of 6-8 week old C57BL/6J mice. Four independent injections were performed and yielded nearly identical results. Six hours post-injection, mice were sacrificed by CO2 inhalation and cervical dislocation. For topical delivery of the POD-GFPHis or GFP-His, C57BL/6J mice were anesthetized with xylazine/ketamine and 2 μl containing 40 μg of protein were dropped onto the […] surface. Forty-five minutes following administration, mice were sacrificed as above and eyes enucleated, washed twice in PBS, and fixed overnight in 4% paraformaldehyde. Eyes were embedded in Optimal Cutting Temperature Compound (Sakura Finetek, Torrance, Calif.) and 14 μm sections were collected using a Microm 550 cryostat.
To determine the transduction properties of POD-GFP […] an amount of 8.5 μg of each of purified POD-GFP or control GFP protein was injected into the subretinal space, i.e., between the retinal pigment epithelium (RPE) and photoreceptors, of 6 week-old male C57BL61J mice. Eyes were harvested after 6 hours and frozen sections were examined by fluorescence microscopy.
Purified POD-GFP, 6.6 μg, or that amount of control GFP protein was injected into the intravitreal space, i.e. between the lens and neural retina of 6 week-old male C57BL6/J mice, and eyes were harvested after 6 hours and frozen sections examined by fluorescence microscopy. […] Unlike with subretinal injection, no POD-GFP signal was detectable in the outer nuclear layer or RPE beyond that of background auto-fluorescence and the overall number of GFP-positive cells was less than that achieved by subretinal injection.

cornea = experiment: Topical application of POD-GFP to cornea in vivo; set-up: species or system C57BL6/J mouse; details: 40 μg, 45 minutes
Description: as §2, with “Eyes were embedded in Optimal Cutting Temperature Compound (Sakura Finetek, Torrance, Calif.) and 14 μm sections were collected using a Microm 550 cryostat.” left out
To further examine localization of POD-GFP, anterior ocular tissues were dissected and the corneas were flat mounted or cross-sectioned and re-examined by fluorescence microscopy. […] In contrast, GFP-fluorescence was readily detected on both flat mounts and cross sections of corneas from mice that received topical application of POD-GFP (FIG. 12 panel B). […] No GFP-signal was detected in corneal cross-sections prepared from mice that received topical application of control GFP.

skin = experiment: Topical application of POD-GFP to shaved skin in vivo; set-up: species or system C57BL6/J mice; details: 40 μg; for GFP-fluorescence in skin: 24 hours
Description: Adult mice were anesthetized as described above and the abdomen shaved to reveal a 2.25 cm^2 area of skin. A dose of 40 μg of protein was applied to the skin for 24 hours. Upon completion of the treatment, animals were sacrificed and the treated skin dissected and fixed overnight in 4% paraformaldehyde and transverse sections were obtained as described herein.
To extend these observations to other organ systems, the potential of transdermal delivery of POD-fusion protein was examined. POD-GFP (40 μg) or control OFF was topically applied to shaved skin of adult C57BL6/J mice. Animals were sacrificed 24 hours later and frozen sections of the treated region were examined by fluorescence microscopy.

Row | Substance | GFP-positive cells (HER cells [1]) [%] | concentration giving almost complete inhibition of bacterial growth (E. coli) [µM] | concentration giving significant inhibition of bacterial growth (E. coli) [µM] | GFP-positive cells [2] [%] | GFP-positive cells (HER cells [3]) [%] | PI-positive cells (HER cells [4]) [%] | localization of expressed protein [5] | detection in retina by fluorescence microscopy (retina; intravitreal, 6.6 μg, 6 hours) | detection in retina by fluorescence microscopy (retina; subretinal, 8.5 μg, 6 hours) | presence on outer surface of the eye (cornea) | GFP-fluorescence in skin (skin) | cellular localization of exogenously added protein (HER cells [3]; HER cells) | binding to lens capsule (retina; intravitreal injection) | transduction of the ONL, share of the retinal surface (retina; subretinal, 8.5 μg, 6 hours) | duration of binding to mouse skin (skin)
1 | CGGG(ARKKAAKA)4 (CGGGARKKAAKAARKKAAKAARKKAAKAARKKAAKA; The peptide was designed and synthesized) [C-POD] | 49.13±2.23 | 24.0 | 0.30 | – | – | – | – | – | – | – | – | – | – | – | –
2 | GFP: His-tagged GFP control protein [reference compound] | – | – | – | 1.4±0.4 | 1.8±0.4 | 3.2±2.7 | relatively diffuse cytoplasmic and nuclear localization | not detected in retinal cells above background auto-fluorescence | barely discernible above background auto-fluorescence | washed away | Only minimal GFP-fluorescence | – | – | – | –
3 | POD-GFP: His-tagged POD-GFP fusion protein | – | – | – | 35.3±0.9 | 34.2±3.4 | 2.8±3.8 | relatively weak cytoplasmic and intense nuclear localization | readily detected in ganglion cells | abundantly present in the outer nuclear layer | detected on most of the ocular surface | significantly GFP-positive | colocalize in part with Lysotracker | very strong affinity | up to 40% | at least 24 hours
